The compounds below were run against T1, 5-hydroxytryptamine receptor 1A (Oryctolagus cuniculus, UniProt Q9MZ11).
T1 sequence (Q9MZ11 whole entry): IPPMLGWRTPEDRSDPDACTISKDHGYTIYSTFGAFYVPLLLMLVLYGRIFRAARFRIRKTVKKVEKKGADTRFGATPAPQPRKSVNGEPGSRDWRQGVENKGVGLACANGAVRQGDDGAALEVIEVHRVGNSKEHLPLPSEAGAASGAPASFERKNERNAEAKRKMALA

Row | Compound | Ki [nM]
1 | CSc1ccc2c(c1)C(N1CCN(C)CC1)Cc1ccccc1S2 (stereo unspecified) [methanesulfonic acid;1-methyl-4-(3-methylsulfanyl-5,6-dihydrobenzo[b][1]benzothiepin-5-yl)piperazine] | 810
2 | COc1cccc(OC)c1OCCNCC1Oc2ccccc2OC1c1ccccc1 (stereo unspecified) [NSC_185453] | 3
3 | C=C1C(=O)O[C@H]2[C@H]1CC/C(C)=C\CC[C@@]1(C)O[C@@H]21 | > 10000
4 | NCCc1ccc(O)c(O)c1 | 7800
5 | O=C1NCN(c2ccccc2)C12CCN(CC1COc3ccccc3O1)CC2 (stereo unspecified) [8-(2,3-Dihydro-benzo[1,4]dioxin-2-ylmethyl)-1-phenyl-1,3,8-triaza-spiro[4.5]decan-4-one] | 2.4
6 | FC(F)(F)c1cccc(N2CCNCC2)c1 [TFMPP] | 130

— BindingDB's records for doi:10.1016/s0742-8413(97)00614-2 (University of Montana, 1997)
